Test results from ChEMBL document CHEMBL1130891, “Solid-phase synthesis of N-substituted amidinophenoxy pyridines as factor XA inhibitors” (Bioorg Med Chem Lett, 1998).
pKi: −log10 of the molar value.

The molecules below were run against Coagulation factor X (Homo sapiens, UniProt P00742) (assay: Binding affinity was evaluated against Coagulation factor X).
Coagulation factor X, sequence (P00742 41-179 limits assumed): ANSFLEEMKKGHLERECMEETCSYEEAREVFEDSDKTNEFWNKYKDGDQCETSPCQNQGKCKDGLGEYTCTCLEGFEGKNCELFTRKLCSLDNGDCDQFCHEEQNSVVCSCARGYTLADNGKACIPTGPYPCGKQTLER
Coagulation factor X, sequence (P00742 235-488 limits assumed): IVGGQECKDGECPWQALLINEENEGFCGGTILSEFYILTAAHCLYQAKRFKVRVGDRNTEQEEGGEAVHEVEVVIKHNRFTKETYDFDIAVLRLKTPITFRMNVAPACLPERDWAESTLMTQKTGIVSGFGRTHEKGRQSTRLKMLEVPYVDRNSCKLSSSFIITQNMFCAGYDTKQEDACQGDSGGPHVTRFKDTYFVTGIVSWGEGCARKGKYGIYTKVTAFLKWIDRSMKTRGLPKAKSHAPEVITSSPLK

| SMILES | pKi |
| --- | --- |
| Cc1c(F)c(Oc2cccc(C(=N)N)c2)nc(N2CCC(C)(c3ccccc3)CC2)c1F | 6.25 |
| Cc1c(F)c(NCCN(C)C)nc(Oc2cccc(C(=N)N)c2)c1F | < 5.30 |
| Cc1cccc(C)c1N1CCN(c2nc(Oc3cccc(C(=N)N)c3)c(F)c(C)c2F)CC1 | < 5.30 |
| Cc1c(F)c(Oc2cccc(C(=N)N)c2)nc(N2CCN(c3ccc4c(c3)OCO4)CC2)c1F | < 5.30 |
| Cc1c(F)c(Oc2cccc(C(=N)N)c2)nc(N2CCN(CC(=O)N3CCOCC3)CC2)c1F | < 5.30 |
| Cc1c(F)c(Oc2cccc(C(=N)N)c2)nc(N2CCN(C)CC2)c1F | < 5.30 |
| Cc1c(F)c(NC2CCCCC2)nc(Oc2cccc(C(=N)N)c2)c1F | < 5.30 |
| CCCOCCNc1nc(Oc2cccc(C(=N)N)c2)c(F)c(C)c1F | < 5.30 |
| Cc1c(F)c(Oc2cccc(C(=N)N)c2)nc(OC2CCNC2)c1F (stereo not drawn) | < 5.30 |
| Cc1c(F)c(NCCCN2CCCC2=O)nc(Oc2cccc(C(=N)N)c2)c1F | < 5.30 |
| Cc1c(F)c(Oc2cccc(C(=N)N)c2)nc(N2CCN(C3CCCCC3)CC2)c1F | 6.31 |

Continued, values first:

| pKi | SMILES |
| --- | --- |
| 7.89 | N=C(N)c1ccc(/C=C2/CCCC/C(=C/c3ccc(C(=N)N)cc3)C2=O)cc1 |
| < 5.30 | CCOC(=O)C1CCCN(c2nc(Oc3cccc(C(=N)N)c3)c(F)c(C)c2F)C1 (stereo not drawn) |
| < 5.30 | Cc1c(F)c(Oc2cccc(C(=N)N)c2)nc(N2CCN(c3ccco3)CC2)c1F |
| < 5.30 | Cc1c(F)c(Oc2cccc(C(=N)N)c2)nc(N2CCC[C@H]2CO)c1F |
| 6.39 | N=C(N)c1ccccc1 [BENZAMIDINE] |
| < 5.30 | CC(=N)N1CCC(Oc2nc(Oc3cccc(C(=N)N)c3)c(F)c(C)c2F)C1 (stereo not drawn) |
| 8.17 | N=C(N)c1cccc(COc2ccccc2)c1 |
